pIC50: −log10 of the molar value.

What is called pIC50 is −log10 of the IC50, conventionally taken in molar units.

For experiment [1], the target named is T1, SHP2 (full length) (Homo sapiens, UniProt Q06124).
T1 construct: SHP2 (full length, diluted to 100 pM final concentration in reaction buffer, BPS bioscience, US); purchased BPS bioscience, US
T1 sequence (Q06124 1-593): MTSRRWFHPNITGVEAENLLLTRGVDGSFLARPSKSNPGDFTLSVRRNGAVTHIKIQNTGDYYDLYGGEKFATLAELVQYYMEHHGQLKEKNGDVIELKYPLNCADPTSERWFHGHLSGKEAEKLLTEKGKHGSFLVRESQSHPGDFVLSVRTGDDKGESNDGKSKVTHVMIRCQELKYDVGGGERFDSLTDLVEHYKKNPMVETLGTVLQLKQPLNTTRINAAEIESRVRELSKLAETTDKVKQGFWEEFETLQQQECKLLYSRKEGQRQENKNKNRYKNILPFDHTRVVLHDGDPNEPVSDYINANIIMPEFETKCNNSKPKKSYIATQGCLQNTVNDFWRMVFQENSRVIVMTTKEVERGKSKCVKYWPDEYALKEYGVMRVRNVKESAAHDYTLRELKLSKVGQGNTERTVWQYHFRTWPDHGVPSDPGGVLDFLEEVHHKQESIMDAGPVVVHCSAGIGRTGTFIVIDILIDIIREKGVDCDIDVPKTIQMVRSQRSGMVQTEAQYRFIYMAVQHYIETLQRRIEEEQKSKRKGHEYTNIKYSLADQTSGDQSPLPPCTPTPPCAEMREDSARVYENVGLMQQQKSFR
The experiment can be described thus: Phosphatase assay (PTPase assay) with DiFMUP substrate. The class given is biochemical. The following applies: SHP2 activated with SHP2 activating peptide; DiFMUP 80 μM, 2 hours; fluorescence; read-out: IC50 (PTPase aS say).

The subject of experiment [2] is phospho-ERK in MIA PaCa2 or H358 cells. The experiment can be described thus: Phospho-ERK assay (AlphaLisa). Particulars: 1.5 h, MIA PaCa2 or H358 cells, compound incubated 1.5 hours; read-out: IC50 (p-ERK). Type of experiment: cell-based.

For `CC(N)CN1CCN(c2nc(N)c(Sc3cccc(Cl)c3Cl)c(=O)n2C)CC1` (centres unmarked) [Example 202, 6-amino-2-(4-(2-aminopropyl)piperazin-1-yl)-5-((2,3-dichlorophenyl)thio)-3-methylpyrimidin-4(3H)-one], the negative-log IC50 (pIC50) in experiment [1] was less than 7.00; in experiment [2], less than 5.82.

The record behind these values is patent publication US12029739B2, “SHP2 inhibitor and use thereof” (KANAPH THERAPEUTICS INC., priority 2021, dated 2024).
